In PMC11997999, “Uncovering α-Selectivity for Liver X Receptor Agonists for Lipotoxic Cancer Therapies” (Journal of Medicinal Chemistry, 2025):
Like-named read-outs stand apart in the source and are kept apart here.

Columns and labels:
LXRα LBD (GST) = target: T1, LXRα LBD (GST) (Homo sapiens, UniProt Q13133); test: Time-resolved LXR FRET assay (LanthaScreen TR-FRET LXRα Coactivator Assay Kit); format: biochemical; conditions: for TR-FRET activity on LXRα, in words: statement made for both isoforms
T1 construct: 5 nM LXRα LBD (GST); 10 nM LXRβ LBD (GST); purchased ThermoFisher Scientific PV4655
T1 sequence (Q13133 209-447 limits assumed): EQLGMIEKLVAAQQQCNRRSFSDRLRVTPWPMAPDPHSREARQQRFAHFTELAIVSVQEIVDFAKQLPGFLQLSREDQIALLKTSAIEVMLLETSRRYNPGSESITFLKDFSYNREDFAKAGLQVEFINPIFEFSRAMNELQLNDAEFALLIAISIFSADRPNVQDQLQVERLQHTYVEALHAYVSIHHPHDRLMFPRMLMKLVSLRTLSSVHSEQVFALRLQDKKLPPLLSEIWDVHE
Procedure: (§1) The biochemical TR-FRET assays were performed using the LanthaScreen TR-FRET LXRα Coactivator Assay Kit, goat (ThermoFisher Scientific, PV4655), and the LanthaScreen TR-FRET LXRβ assay kit, goat (ThermoFisher Scientific, PV4658), according to the manufacturer’s instructions using the following concentrations: 5 nM LXRα LBD (GST); 10 nM LXRβ LBD (GST); 500 nM fluorescein-TRAP220/DRIP-2; 200 nM fluorescein-D22; 10 nM Tb anti-GST antibody. The TR-FRET signals were measured after 6 h using a TECAN SPARK multimode microplate reader with the following settings: first excitation wavelength: 360 nm (bandwidth 35 nm), first emission wavelength: 485 nm (bandwidth 20 nm); second excitation wavelength: 360 nm (bandwidth 35 nm), second emission wavelength: 535 nm (bandwidth 25 nm); integration time: 200 μs; lag time: 100 μs; settle time: 0 ms.

LXRβ LBD (GST) = target: T2, LXRβ LBD (GST) (Homo sapiens, UniProt P55055); test: Time-resolved LXR FRET assay (LanthaScreen TR-FRET LXRβ assay kit); format: biochemical; conditions: for TR-FRET activity on LXRβ, in words: statement made for both isoforms
T2 construct: 5 nM LXRα LBD (GST); 10 nM LXRβ LBD (GST); purchased ThermoFisher Scientific PV4658
T2 sequence (P55055 222-460 limits assumed): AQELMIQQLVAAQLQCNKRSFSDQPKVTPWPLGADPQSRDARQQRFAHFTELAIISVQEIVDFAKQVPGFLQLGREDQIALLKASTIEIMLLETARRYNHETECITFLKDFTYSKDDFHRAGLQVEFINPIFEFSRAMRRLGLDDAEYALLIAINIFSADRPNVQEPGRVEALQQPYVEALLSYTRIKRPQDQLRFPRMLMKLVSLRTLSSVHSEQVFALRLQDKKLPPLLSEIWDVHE
Procedure: as §1

[1] = 5 nM LXRα LBD (GST), read after 6 h, R^2 of fit given, read-out: TR-FRET activity (EC50) LXRα
[2] = 10 nM LXRβ LBD (GST), read after 6 h, R^2 of fit given, read-out: TR-FRET activity (EC50) LXRβ
[3] = supplement list of compounds, LXRα, unit inferred, read-out: FRET activity a
[4] = supplement list of compounds, (LXRβ), unit inferred, read-out: FRET activity b

Compound | EC50 (LXRα LBD (GST); [1]) [nM] | EC50 (LXRβ LBD (GST); [2]) [nM] | EC50 (LXRα LBD (GST); [3]) [nM] | EC50 (LXRβ LBD (GST); [4]) [nM] | TR-FRET activity on LXRα, in words (LXRα LBD (GST)) | TR-FRET activity on LXRβ, in words (LXRβ LBD (GST))
O=C1C(Nc2ccc(F)cc2)=C(c2ccccc2)C(=O)N1Cc1ccccc1 [Compound 31, 1-Benzyl-3-((4-fluorophenyl)amino)-4-phenyl-1H-pyrrole-2,5-dione] | 335 | 548 | – | – | – | –
O=C1C(Nc2ccccc2)=C(c2ccccc2)C(=O)N1Cc1ccccc1 [Compound 29, 1-Benzyl-3-phenyl-4-(phenylamino)-1H-pyrrole-2,5-dione] | 312 | 265 | – | – | – | –
COc1ccc(CN2C(=O)C(Nc3ccc(OC)cc3)=C(c3ccccc3)C2=O)cc1 [Compound 19, 1-(4-Methoxybenzyl)-3-((4-methoxyphenyl)amino)-4-phenyl-1H-pyrrole-2,5-dione] | 518 | 592 | – | – | – | –
COc1ccc(OC2=C(c3ccccc3)C(=O)N(Cc3ccccc3)C2=O)cc1 [Compound 26, 1-Benzyl-3-(4-methoxyphenoxy)-4-phenyl-1H-pyrrole-2,5-dione] | > 3000 | > 3000 | – | – | completely lost activity | completely lost activity
COc1ccc(CNC2=C(c3ccccc3)C(=O)N(Cc3ccccc3)C2=O)cc1 [Compound 28, 1-Benzyl-3-((4-methoxybenzyl)amino)-4-phenyl-1H-pyrrole-2,5-dione] | > 3000 | > 3000 | – | – | no activity | no activity
COc1ccc(NC2=C(c3ccccc3)C(=O)N(Cc3ccncc3)C2=O)cc1 [Compound 21, 3-((4-Methoxyphenyl)amino)-4-phenyl-1-(pyridin-4-ylmethyl)-1H-pyrrole-2,5-dione] | 390 | 231 | – | – | – | –
COc1ccc(NC2=C(c3ccccc3)C(=O)N(CC3CCCCC3)C2=O)cc1 [Compound 22, 1-(Cyclohexylmethyl)-3-((4-methoxyphenyl)amino)-4-phenyl-1H-pyrrole-2,5-dione] | 1960 | 2590 | – | – | – | –
O=C1C(Nc2ccc(CO)cc2)=C(c2ccccc2)C(=O)N1Cc1ccccc1 [Compound 34, 1-Benzyl-3-((4-(hydroxymethyl)phenyl)amino)-4-phenyl-1H-pyrrole-2,5-dione] | 278 | 133 | – | – | – | –
O=C1C(Nc2ccc(Cl)cc2)=C(c2ccccc2)C(=O)N1Cc1ccccc1 [Compound 30, 1-Benzyl-3-((4-chlorophenyl)amino)-4-phenyl-1H-pyrrole-2,5-dione] | 1150 | 1180 | – | – | – | –
COc1ccc(NC2=C(c3ccccc3)C(=O)N(C(C)(C)C)C2=O)cc1 [Compound 24, 1-(tert-Butyl)-3-((4-methoxyphenyl)amino)-4-phenyl-1H-pyrrole-2,5-dione] | 245 | 232 | – | – | – | –
COc1ccc(NC2=C(c3ccccc3)C(=O)N(Cc3ccc(F)cc3)C2=O)cc1 [Compound 16, 1-(4-Fluorobenzyl)-3-((4-methoxyphenyl)amino)-4-phenyl-1H-pyrrole-2,5-dione] | 768 | 594 | – | – | – | –
COc1ccc(NC2=C(c3ccccc3)C(=O)N(Cc3ccc(C(F)(F)F)cc3)C2=O)cc1 [Compound 18, 3-((4-Methoxyphenyl)amino)-4-phenyl-1-(4-(trifluoromethyl)benzyl)-1H-pyrrole-2,5-dione] | > 3000 | > 3000 | – | – | completely lost potency | completely lost potency
CN(C)c1ccc(NC2=C(c3ccccc3)C(=O)N(Cc3ccccc3)C2=O)cc1 [Compound 35, 1-Benzyl-3-((4-(dimethylamino)phenyl)amino)-4-phenyl-1H-pyrrole-2,5-dione] | 71 | 91 | – | – | – | –
Cc1ccc(NC2=C(c3ccccc3)C(=O)N(Cc3ccccc3)C2=O)cc1 [Compound 32, 1-Benzyl-3-phenyl-4-(p-tolylamino)-1H-pyrrole-2,5-dione] | 825 | 617 | – | – | – | –

Further lines, results first:

EC50 (LXRα LBD (GST); [1]) [nM] | EC50 (LXRβ LBD (GST); [2]) [nM] | EC50 (LXRα LBD (GST); [3]) [nM] | EC50 (LXRβ LBD (GST); [4]) [nM] | TR-FRET activity on LXRα, in words (LXRα LBD (GST)) | TR-FRET activity on LXRβ, in words (LXRβ LBD (GST)) | Compound
139 | 84 | – | – | – | – | O=C1Cc2cc(NC3=C(c4ccccc4)C(=O)N(Cc4ccccc4)C3=O)ccc2N1 [Compound 37, 1-Benzyl-3-((2-oxoindolin-5-yl)amino)-4-phenyl-1H-pyrrole-2,5-dione]
– | – | 618 | – | – | – | O=C1C(Nc2ccc(NC3CCNCC3)cc2)=C(c2ccccc2)C(=O)N1Cc1ccccc1 [Compound 47, 1-Benzyl-3-phenyl-4-((4-(piperidin-4-ylamino)phenyl)amino)-1H-pyrrole-2,5-dione]
– | – | 786 | 150 | – | – | CN1CCC(Nc2ccc(NC3=C(c4ccccc4)C(=O)N(Cc4ccccc4)C3=O)cc2)CC1 [Compound 48, 1-Benzyl-3-((4-((1-methylpiperidin-4-yl)amino)phenyl)amino)-4-phenyl-1H-pyrrole-2,5-dione]
– | – | > 3000 | > 3000 | abolished all activity | abolished all activity | CC(C)(C)OC(=O)NC1CCN(c2ccc(NC3=C(c4ccccc4)C(=O)N(Cc4ccccc4)C3=O)cc2)CC1 [Compound 45, tert-Butyl-(1-(4-((1-benzyl-2,5-dioxo-4-phenyl-2,5-dihydro-1H-pyrrol-3-yl)amino)phenyl)piperidin-4-yl)carbamate]
> 3000 | > 3000 | – | – | no activity | no activity | O=C1NC(=O)C(c2ccccc2)=C1Nc1ccc(N2CCCCC2)cc1 [Compound 52, 3-Phenyl-4-((4-(piperidin-1-yl)phenyl)amino)-1H-pyrrole-2,5-dione]
– | – | 74 | 225 | – | – | O=C(c1ccc(NC2=C(c3ccccc3)C(=O)N(Cc3ccccc3)C2=O)cc1)N1CCCCC1 [Compound 50, 1-Benzyl-3-phenyl-4-((4-(piperidine-1-carbonyl)phenyl)amino)-1H-pyrrole-2,5-dione]
737 | 1320 | – | – | – | – | COc1cc(NC2=C(c3ccccc3)C(=O)N(Cc3ccccc3)C2=O)cc(OC)c1 [Compound 39, 1-Benzyl-3-((3,5-dimethoxyphenyl)amino)-4-phenyl-1H-pyrrole-2,5-dione]
42 | 45 | – | – | – | – | O=C1C(Nc2ccc3c(c2)OCO3)=C(c2ccccc2)C(=O)N1Cc1ccccc1 [Compound 38, 3-(Benzo[d][1,3]dioxol-5-ylamino)-1-benzyl-4-phenyl-1H-pyrrole-2,5-dione]
1250 | 283 | – | – | – | – | O=C1C(Nc2ccc(N3CCNCC3)cc2)=C(c2ccccc2)C(=O)N1Cc1ccccc1 [Compound 43, 1-Benzyl-3-phenyl-4-((4-(piperazin-1-yl)phenyl)amino)-1H-pyrrole-2,5-dione]
> 3000 | > 3000 | – | – | completely abolished activation | completely abolished activation | NC(=O)c1ccc(NC2=C(c3ccccc3)C(=O)N(Cc3ccccc3)C2=O)cc1 [Compound 36, 4-((1-Benzyl-2,5-dioxo-4-phenyl-2,5-dihydro-1H-pyrrol-3-yl)amino)benzamide]
– | – | 103 | 130 | – | – | O=C1CCN(c2ccc(NC3=C(c4ccccc4)C(=O)N(Cc4ccccc4)C3=O)cc2)CC1 [Compound 49, 1-Benzyl-3-((4-(4-oxopiperidin-1-yl)phenyl)amino)-4-phenyl-1H-pyrrole-2,5-dione]
– | – | 379 | 657 | no relevant activity | no relevant activity | CN1CCN(c2ccc(NC3=C(c4ccccc4)C(=O)N(Cc4ccccc4)C3=O)cc2)CC1 [Compound 44, 1-Benzyl-3-((4-(4-methylpiperazin-1-yl)phenyl)amino)-4-phenyl-1H-pyrrole-2,5-dione]
35 | 106 | – | – | – | – | O=C1C(Nc2ccc(N3CCOCC3)cc2)=C(c2ccccc2)C(=O)N1Cc1ccccc1 [Compound 41, 1-Benzyl-3-((4-morpholinophenyl)amino)-4-phenyl-1H-pyrrole-2,5-dione]
50 | 123 | – | – | – | – | O=C1C(Nc2ccc(N3CCSCC3)cc2)=C(c2ccccc2)C(=O)N1Cc1ccccc1 [Compound 42, 1-Benzyl-3-phenyl-4-((4-thiomorpholinophenyl)amino)-1H-pyrrole-2,5-dione]
